In the supplement of paper PMC10307832:

Experiments:
Test in all cases: relative viability (nuclei count vs DMSO), 5 days (fraction); higher = more cells survive
[1] = compound: C[C@@H](N)c1ccc(C(=O)Nc2ccnc3[nH]ccc23)cc1 + C[C@@H](Oc1cc(-c2cnn(C3CCNCC3)c2)cnc1N)c1c(Cl)ccc(F)c1Cl [Crizotinib] (partner 1 µM)
Summary of the method: (§1)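 Relative viability equals treated-well nuclei counts divided by vehicle-well nuclei counts. Counts came from 4× images of lung cancer cell lines grown in 1536-well plates for 5 days after pin-tool dosing on the day after seeding. Dosing used one drug alone or a fixed anchor-drug dose plus five library-drug doses (not always all listed) in √10 steps, and values are medians of duplicate plates.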

[2] = compound: O[C@H]1CC[C@H](Nc2ncc3nc(Nc4c(F)cc(F)cc4F)n([C@H]4CCOC4)c3n2)CC1 [Tanzisertib] + CCNC(=O)c1noc(-c2cc(C(C)C)c(O)cc2O)c1-c1ccc(CN2CCOCC2)cc1 [Luminespib] (partner 0.01 µM)
Summary of the method: as §1

[3] = compound: O[C@H]1CC[C@H](Nc2ncc3nc(Nc4c(F)cc(F)cc4F)n([C@H]4CCOC4)c3n2)CC1 [Tanzisertib] + C[C@@H](Oc1cc(-c2cnn(C3CCNCC3)c2)cnc1N)c1c(Cl)ccc(F)c1Cl [Crizotinib] (partner 1 µM)
Summary of the method: as §1

[4] = compound: O[C@H]1CC[C@H](Nc2ncc3nc(Nc4c(F)cc(F)cc4F)n([C@H]4CCOC4)c3n2)CC1 [Tanzisertib] + Nc1nc2[nH]cc(CCc3ccc(C(=O)N[C@@H](CCC(=O)O)C(=O)O)cc3)c2c(=O)[nH]1 [Pemetrexed] (partner 0.2 µM)
Summary of the method: as §1

| Cell Line | relative viability ([1]; first compound 0.04 µM) | relative viability ([1]; first compound 0.1265 µM) | relative viability ([1]; first compound 0.4 µM) | relative viability ([1]; first compound 1.265 µM) | relative viability ([1]; first compound 4 µM) | relative viability ([2]; first compound 0.08 µM) | relative viability ([2]; first compound 0.253 µM) | relative viability ([2]; first compound 0.8 µM) | relative viability ([2]; first compound 2.53 µM) | relative viability ([2]; first compound 8 µM) | relative viability ([3]; first compound 0.08 µM) | relative viability ([3]; first compound 0.253 µM) | relative viability ([3]; first compound 0.8 µM) | relative viability ([3]; first compound 2.53 µM) | relative viability ([3]; first compound 8 µM) | relative viability ([4]; first compound 0.08 µM) | relative viability ([4]; first compound 0.253 µM) | relative viability ([4]; first compound 0.8 µM) | relative viability ([4]; first compound 2.53 µM) | relative viability ([4]; first compound 8 µM) |
| --- | --- | --- | --- | --- | --- | --- | --- | --- | --- | --- | --- | --- | --- | --- | --- | --- | --- | --- | --- | --- |
| 201T | 1.02 | 1.02 | 0.959 | 1.09 | 1.1 | 1.09 | 1.06 | 1.06 | 1.03 | 1.05 | 1.04 | 1.04 | 1.02 | 1.05 | 0.996 | 0.321 | 0.322 | 0.325 | 0.314 | 0.298 |
| A549 | 0.833 | 0.793 | 0.734 | 0.504 | 0.268 |  |  |  |  |  | 0.852 | 0.633 | 0.778 | 0.913 | 0.714 |  |  |  |  |  |
| A-427 | 0.875 | 0.882 | 0.959 |  | 0.894 | 0.941 | 0.893 | 0.942 | 0.972 | 1.07 | 0.995 | 0.85 | 0.931 | 0.902 | 0.846 | 0.958 | 0.99 | 0.998 | 1.04 | 0.916 |
| ABC-1 | 1.47 | 1.19 | 1.4 | 1.6 | 0.857 | 0.777 | 0.428 | 0.518 | 0.735 | 0.944 | 1.4 | 1.07 | 1.29 | 1.26 | 1.26 |  |  |  |  |  |
| BEN | 0.952 | 0.828 | 0.918 | 1.09 | 0.675 | 0.352 | 0.77 | 0.814 | 0.382 | 0.209 | 0.846 | 0.775 | 0.914 | 0.845 | 0.878 | 0.755 | 0.923 | 1 | 0.909 | 0.605 |
| CAL-12T | 0.795 | 0.78 | 0.845 | 0.529 | 0.252 | 0.383 | 0.409 | 0.376 | 0.731 | 0.247 | 0.677 | 0.715 | 0.684 | 0.547 | 0.686 | 1.06 | 1.24 | 1.12 | 1.21 | 1.18 |
| COR-L23 | 0.64 | 0.741 | 0.647 | 0.412 | 0.17 | 0.588 | 0.579 | 0.669 | 0.706 | 0.639 | 0.861 | 0.669 | 0.638 | 0.701 | 0.709 | 0.2 | 0.209 | 0.188 | 0.201 | 0.191 |
| COR-L 105 | 0.721 | 0.747 | 0.652 | 0.537 | 0.408 | 0.795 | 0.754 | 0.651 | 0.986 | 0.69 | 0.81 | 0.986 | 0.822 | 0.855 | 0.622 | 1.4 | 1.12 | 1.14 | 1.28 | 0.884 |
| Calu-6 | 0.761 | 0.76 | 0.741 | 0.682 | 0.489 |  |  |  |  |  | 0.79 | 0.785 | 0.782 | 0.756 | 0.712 |  |  |  |  |  |
| ChaGo-K-1 | 1.07 | 1.17 | 1.1 |  | 0.846 | 0.573 | 0.406 | 0.552 | 0.589 | 0.648 | 1.21 | 1.13 | 1.07 | 1.09 | 1.02 | 0.251 | 0.25 | 0.242 | 0.261 | 0.274 |
| EBC-1 | 0.216 | 0.184 | 0.189 | 0.141 | 0.145 |  |  |  |  |  | 0.206 | 0.168 | 0.195 | 0.178 | 0.185 |  |  |  |  |  |
| EKVX | 0.979 | 1.03 | 1.04 | 1.05 | 0.963 | 0.974 | 0.882 | 0.801 | 0.833 | 0.825 | 0.895 | 0.867 | 0.967 | 0.898 | 0.853 | 0.467 | 0.341 | 0.41 | 0.34 | 0.337 |
| EMC-BAC-2 | 0.806 | 0.793 | 0.707 | 0.764 | 0.655 | 1.24 | 1.07 | 1.23 | 1.16 | 1.14 | 0.799 | 0.74 | 0.705 | 0.763 | 0.747 | 0.429 | 0.427 | 0.432 | 0.451 | 0.469 |
| EPLC-272H | 0.922 | 0.891 | 0.957 |  | 0.61 | 0.251 | 0.206 | 0.519 | 0.921 | 0.408 | 0.958 | 0.862 | 0.864 | 0.874 | 0.872 | 0.296 | 0.306 | 0.388 | 0.475 | 0.289 |
| H3255 | 0.862 | 0.979 | 1.04 | 0.972 | 0.761 | 0.818 | 0.929 | 1.02 | 0.846 | 0.773 | 0.933 | 0.855 | 1.01 | 0.875 | 0.662 | 0.555 | 0.528 | 0.525 | 0.526 | 0.441 |
| HARA | 1.18 | 1.13 | 1.21 | 0.835 | 0.735 | 0.856 | 0.907 | 1.06 | 0.79 | 0.686 | 1.12 | 1.05 | 1.06 | 1.06 | 1.08 | 0.282 | 0.275 | 0.282 | 0.24 | 0.245 |
| HCC-15 | 0.903 | 0.781 | 0.805 |  | 0.72 | 0.504 | 0.193 | 0.357 | 0.406 | 0.453 | 0.877 | 0.811 | 0.88 | 0.818 | 0.872 | 0.228 | 0.208 | 0.199 | 0.207 | 0.21 |
| HCC-44 | 0.82 | 0.776 | 0.86 | 0.995 | 0.652 | 1.14 | 1.12 | 1.09 | 1.07 | 1.13 | 0.907 | 0.824 | 0.822 | 0.89 | 0.817 | 0.642 | 0.637 | 0.597 | 0.624 | 0.688 |
